This note sets out measurements from patent US11945790B2 (ImmunoMolecular Therapeutics, Inc., priority 2020, dated 2024).

In this assay the target is HLA-DQ2 (Homo sapiens, UniProt P01909+P01920). In words: Inhibition of IL-2 secretion by TCR transductants stimulated by α-gliadin peptides presented by HLA-DQ2 expressing K562 cells (ELISA). The note with it: inhibition of IL-2 secretion at 200 uM; tested as trans racemate unless otherwise noted; lines naming several Examples = stereoisomer mixture of those Examples. It is filed as cell-based. On the procedure: Three commercially available analogues of the DQ2 binding molecules of the invention were tested for their ability to inhibit stimulation of T cell receptor (TCR) transductants in the presence of HLA-DQ2 expressing cells presenting known α-gliadin epitopes.
HLA-DQ2, sequence (P01920 33-261 limits assumed, other chains not shown): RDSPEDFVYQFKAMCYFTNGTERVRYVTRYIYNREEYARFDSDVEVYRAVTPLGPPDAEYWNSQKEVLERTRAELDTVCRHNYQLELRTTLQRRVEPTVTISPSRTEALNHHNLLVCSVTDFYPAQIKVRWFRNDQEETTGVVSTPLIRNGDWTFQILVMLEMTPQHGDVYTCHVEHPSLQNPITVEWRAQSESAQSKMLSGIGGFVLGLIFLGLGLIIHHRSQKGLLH
Using a previously published in vitro assay (Ostrov D, et al. Methyldopa blocks MHC class II binding to disease specific antigens in autoimmune diabetes. J Clin Invest. 2018:128 (5)) the ability of these DQ2 binding analogues to inhibit interleukin-2 (IL-2) secretion by TCR transductants stimulated by α-gliadin peptides presented by HLA-DQ2 was determined. Individual TCR transductants (recognizing a I-gliadin or a II-gliadin) were cultured with a gliadin peptide plus the small molecule analogues in the presence of HLA-DQ2 expressing K562 cells serving as antigen presenting cells. TCR transductants cultured with no gliadin peptide served as the negative control, and incubation with an anti-CD3 antibody (eBioscience; clone 2C11) served as a positive control for the TCR transductant. Secreted IL-2 in the culture supernatant was measured using a highly sensitive enzyme-linked immunosorbent assay (ELISA). […] Assays for effects on cell viability and for specificity, assayed in the absence of gliadin peptide or in the presence of a stimulating anti-CD3 antibody, were performed. Unless otherwise noted, the stereochemistry shown below represents the relative configuration. Further, unless otherwise noted, compounds were tested as the trans racemate.
(In general: ELISA stands for enzyme-linked immunosorbent assay.)
Turning to `O=C(CSC1CCCC1)N1CCN(C(=O)[C@H]2C[C@@H]2c2ccccc2)CC1` [Example 13, 2-(Cyclopentylthio)-1-(4-((1S,2S)-2-phenylcyclopropanecarbonyl)piperazin-1-yl)ethanone], the “% Inh at 200 uM” value was “A (A=≥75%)”.

Regarding `O=C(CSC1CCCC1)N1CCN(C(=O)C2CC2c2cccs2)CC1` (stereo not shown) [Example 14], the “% Inh at 200 uM” value is “A (A=≥75%)”. On to `Cc1noc(C)c1CCC(=O)N1CCN(C(=O)C2CC2c2ccc3c(c2)OCO3)CC1` (stereo not shown) [Example 15], for which the “% Inh at 200 uM” value is given as “C (C=25-49%)”.

Take `O=C(CCS(=O)(=O)c1ccccc1)N1CCN(C(=O)C2CC2c2ccc3c(c2)OCO3)CC1` (stereo not shown) [Example 16]: the “% Inh at 200 uM” value is recorded as “A (A=≥75%)”. The same measure for `CCOc1ccccc1C(=O)N1CCN(C(=O)C2CC2c2ccc3c(c2)OCO3)CC1` (stereo not shown) [Example 17]: “C (C=25-49%)”.

Consider `O=C(c1cc(Cl)ccc1Cl)N1CCN(C(=O)C2CC2c2ccc3c(c2)OCO3)CC1` (stereo not shown) [Example 18], for which the “% Inh at 200 uM” value is given as “A (A=≥75%)”. In the case of `CSc1ccccc1C(=O)N1CCN(C(=O)C2CC2c2ccc3c(c2)OCO3)CC1` (stereo not shown) [Example 19] it was “C (C=25-49%)”. The same measure for `CN(C)c1cccc(C(=O)N2CCN(C(=O)C3CC3c3ccc4c(c3)OCO4)CC2)c1` (stereo not shown) [Example 20]: “B (B=50-74%)”; for `O=C(c1ccccc1C(F)(F)F)N1CCN(C(=O)C2CC2c2ccc3c(c2)OCO3)CC1` (stereo not shown) [Example 21]: “C (C=25-49%)”.

For the molecule `O=C(c1ccccc1F)N1CCN(C(=O)C2CC2c2ccc3c(c2)OCO3)CC1` (stereo not shown) [Example 22], the “% Inh at 200 uM” value is recorded as “B (B=50-74%)”. In the case of `O=C(Cc1c(F)cccc1Cl)N1CCN(C(=O)C2CC2c2ccc3c(c2)OCO3)CC1` (stereo not shown) [Example 23] it was “C (C=25-49%)”.

Consider `O=C(Cc1cccs1)N1CCN(C(=O)C2CC2c2ccc3c(c2)OCO3)CC1` (stereo not shown) [Example 24], for which the “% Inh at 200 uM” value is recorded as “A (A=≥75%)”. On to `O=C(C1CCCC1)N1CCN(C(=O)C2CC2c2ccc3c(c2)OCO3)CC1` (stereo not shown) [Example 25], for which the “% Inh at 200 uM” value was “A (A=≥75%)”.

Take `CS(=O)(=O)N1CCC(C(=O)N2CCN(C(=O)C3CC3c3ccc4c(c3)OCO4)CC2)CC1` (stereo not shown) [Example 26]: the “% Inh at 200 uM” value was “C (C=25-49%)”. In the case of `COc1cccc([C@H]2C[C@@H]2C(=O)N2CCN(C(=O)CSC3CCCC3)CC2)c1` [Example 27] it was “B (B=50-74%)”. On to `COc1ccc([C@H]2C[C@@H]2C(=O)N2CCN(C(=O)CSC3CCCC3)CC2)cc1` [Example 28], for which the “% Inh at 200 uM” value is listed as “B (B=50-74%)”. In the case of `O=C(CSC1CCCC1)N1CCN(C(=O)[C@H]2C[C@@H]2c2cccc(O)c2)CC1` [Example 29] it was “B (B=50-74%)”. In the case of `O=C(CSC1CCCC1)N1CCN(C(=O)[C@H]2C[C@@H]2c2ccc(O)cc2)CC1` [Example 30] it was “D (D=0-24%)”. The same measure for `N#Cc1cccc([C@H]2C[C@@H]2C(=O)N2CCN(C(=O)CSC3CCCC3)CC2)c1` [Example 31]: “C (C=25-49%)”; for `O=C(CSC1CCCC1)N1CCN(C(=O)[C@H]2C[C@@H]2c2cccc(Cl)c2)CC1` [Example 32]: “B (B=50-74%)”; for `O=C(CSC1CCCC1)N1CCN(C(=O)[C@@H]2C[C@H]2c2ccccc2F)CC1` [Example 33]: “B (B=50-74%)”. On to `COc1ccccc1[C@H]1C[C@@H]1C(=O)N1CCN(C(=O)CSC2CCCC2)CC1` [Example 34], for which the “% Inh at 200 uM” value is recorded as “B (B=50-74%)”. In the case of `O=C(CSC1CCCC1)N1CCN(C(=O)[C@H]2C[C@@H]2c2ccc(F)c(F)c2)CC1` [Example 35] it was “A (A=≥75%)”; in that of `O=C(CSC1CCCC1)N1CCN(C(=O)[C@H]2C[C@@H]2c2ccccc2Cl)CC1` [Example 36], “A (A=≥75%)”. In the case of `O=C(CSC1CCCC1)N1CCN(C(=O)[C@H]2C[C@@H]2c2ccccc2O)CC1` [Example 37], the “% Inh at 200 uM” value is on record as “B (B=50-74%)”. The same measure for `O=C(COC1CCCCC1)N1CCN(C(=O)C2CC2c2ccccc2)CC1` (stereo not drawn) [Example 40, 2-(Cyclohexyloxy)-1-(4-((trans-2-phenylcyclopropanecarbonyl)-piperazin-1-yl)ethanone]: “B (B=50-74%)”; for `O=C(CSC1CCCCC1)N1CCN(C(=O)[C@@H]2C[C@H]2c2ccccc2)CC1` [Example 41, 2-(Cyclohexylthio)-1-(4-((1R, 2R)-2-phenylcyclopropane-1-carbonyl)piperazin-1-yl) ethan-1-one]: “B (B=50-74%)”. On to `CC(C)SCC(=O)N1CCN(C(=O)[C@@H]2C[C@H]2c2ccccc2)CC1` [Example 45], for which the “% Inh at 200 uM” value is reported as “C (C=25-49%)”.

Regarding `Cc1cccc(SCC(=O)N2CCN(C(=O)[C@@H]3C[C@H]3c3ccccc3)CC2)c1` [Example 51], the “% Inh at 200 uM” value is recorded as “A (A=≥75%)”. In the case of `Cc1ccc(SCC(=O)N2CCN(C(=O)[C@@H]3C[C@H]3c3ccccc3)CC2)cc1` [Example 53] it was “B (B=50-74%)”; in that of `COc1cccc(SCC(=O)N2CCN(C(=O)[C@@H]3C[C@H]3c3ccccc3)CC2)c1` [Example 62], “C (C=25-49%)”; in that of `COc1ccccc1SCC(=O)N1CCN(C(=O)[C@@H]2C[C@H]2c2ccccc2)CC1` [Example 63], “B (B=50-74%)”. For the molecule `O=C(COC1CCCC1)N1CCN(C(=O)[C@@H]2C[C@H]2c2ccccc2)CC1` [Example 64], the “% Inh at 200 uM” value was “B (B=50-74%)”. On to `CC1(c2ccccc2O)CC1C(=O)N1CCN(C(=O)CSC2CCCC2)CC1` (stereo not shown) [Example 67], for which the “% Inh at 200 uM” value is “C (C=25-49%)”. In the case of `O=C(CSC1CCCC1)N1CCN(C(=O)[C@@H]2C[C@H]2c2ccc(F)cc2)CC1` [Example 68] it was “C (C=25-49%)”; in that of `Cc1ccc(SCC(=O)N2CCN(C(=O)[C@@H]3C[C@H]3c3ccccc3)CC2)c(C)c1` [Example 70], “A (A=≥75%)”; in that of `NC(=O)c1ccccc1SCC(=O)N1CCN(C(=O)[C@@H]2C[C@H]2c2ccccc2)CC1` [Example 73], “C (C=25-49%)”. With `O=CNc1ccc(SCC(=O)N2CCN(C(=O)[C@@H]3C[C@H]3c3ccccc3)CC2)cc1` [Example 74], the “% Inh at 200 uM” value was “B (B=50-74%)”.

Take `COc1ccc(SCC(=O)N2CCN(C(=O)[C@@H]3C[C@H]3c3ccccc3)CC2)cc1` [Example 75]: the “% Inh at 200 uM” value is on record as “B (B=50-74%)”.

In the case of `O=C(CSc1ccc(O)cc1)N1CCN(C(=O)[C@@H]2C[C@H]2c2ccccc2)CC1` [Example 76], the “% Inh at 200 uM” value is “C (C=25-49%)”. As for `O=C(C[S+]([O-])C1CCCC1)N1CCN(C(=O)C2C[C@@H]2c2ccccc2)CC1` (stereo partly shown) [Example 80], the “% Inh at 200 uM” value is “B (B=50-74%)”. In the case of `O=C(CNC1CCCC1)N1CCN(C(=O)[C@H]2CC2c2ccccc2)CC1` (stereo partly shown) [Example 81] it was “A (A=≥75%)”. The same measure for `CN(CC(=O)N1CCN(C(=O)[C@H]2CC2c2ccccc2)CC1)C1CCCC1` (stereo partly shown) [Example 82]: “B (B=50-74%)”; for `O=C(CN(C(=O)OCc1ccccc1)C1CCCC1)N1CCN(C(=O)[C@@H]2CC2c2ccccc2)CC1` (stereo partly shown) [Example 83]: “A (A=≥75%)”; for `O=CNc1ccccc1SCC(=O)N1CCN(C(=O)[C@@H]2C[C@H]2c2ccccc2)CC1` [Example 86]: “C (C=25-49%)”. In the case of `O=C(CSc1cccc(O)c1)N1CCN(C(=O)[C@@H]2C[C@H]2c2ccccc2)CC1` [Example 87], the “% Inh at 200 uM” value is given as “C (C=25-49%)”. The same measure for `O=C(CSc1ccccc1O)N1CCN(C(=O)[C@@H]2C[C@H]2c2ccccc2)CC1` [Example 88]: “B (B=50-74%)”; for `NC(=O)c1ccc(OCC(=O)N2CCN(C(=O)[C@@H]3C[C@H]3c3ccccc3)CC2)cc1` [Example 89]: “C (C=25-49%)”.

With `NC(=O)c1ccccc1OCC(=O)N1CCN(C(=O)[C@@H]2C[C@H]2c2ccccc2)CC1` [Example 90], the “% Inh at 200 uM” value is listed as “B (B=50-74%)”. Regarding `NC(=O)c1cccc(OCC(=O)N2CCN(C(=O)[C@@H]3C[C@H]3c3ccccc3)CC2)c1` [Example 91], the “% Inh at 200 uM” value is “B (B=50-74%)”. On to `O=CNc1ccccc1OCC(=O)N1CCN(C(=O)[C@@H]2C[C@H]2c2ccccc2)CC1` [Example 93], for which the “% Inh at 200 uM” value was “B (B=50-74%)”.

`O=CNc1cccc(OCC(=O)N2CCN(C(=O)[C@@H]3C[C@H]3c3ccccc3)CC2)c1` [Example 94]: the “% Inh at 200 uM” value is listed as “C (C=25-49%)”.

Regarding `O=C(COc1ccc(O)cc1)N1CCN(C(=O)[C@@H]2C[C@H]2c2ccccc2)CC1` [Example 95], the “% Inh at 200 uM” value is recorded as “C (C=25-49%)”.

With `O=C(COc1cccc(O)c1)N1CCN(C(=O)[C@@H]2C[C@H]2c2ccccc2)CC1` [Example 96], the “% Inh at 200 uM” value was “B (B=50-74%)”. On to `O=C(O)c1ccccc1OCC(=O)N1CCN(C(=O)[C@@H]2C[C@H]2c2ccccc2)CC1` [Example 97], for which the “% Inh at 200 uM” value is reported as “C (C=25-49%)”. As for `O=C(COc1ccccc1F)N1CCN(C(=O)[C@@H]2C[C@H]2c2ccccc2)CC1` [Example 98], the “% Inh at 200 uM” value is “B (B=50-74%)”. In the case of `O=C(COc1cccc(F)c1)N1CCN(C(=O)[C@@H]2C[C@H]2c2ccccc2)CC1` [Example 99] it was “B (B=50-74%)”.

On to `COC(=O)c1ccccc1OCC(=O)N1CCN(C(=O)[C@@H]2C[C@H]2c2ccccc2)CC1` [Example 100], for which the “% Inh at 200 uM” value was “C (C=25-49%)”.
